# Results published in ChEMBL document CHEMBL2390897, “3-Anhydro-6-hydroxy-ophiobolin A, a new sesterterpene inhibiting the growth of methicillin-resistant Staphylococcus aureus and inducing the cell death by apoptosis on K562, from the phytopathogenic fungus Bipolaris oryzae” (Bioorg Med Chem Lett, 2013).
# Active and inactive are the calls of the source. The calls are words filed in the database; no cut-off is given here.
# Experiments:
# Bacillus subtilis = test: Antimicrobial activity against Bacillus subtilis ATCC 6051; format: functional
# Candida albicans = test: Antimicrobial activity against Candida albicans SC5314; format: functional
# Pseudomonas aeruginosa = test: Antimicrobial activity against Pseudomonas aeruginosa PAO1; format: functional
# Staphylococcus aureus [1] = test: Antimicrobial activity against methicillin-resistant Staphylococcus aureus; format: functional
# HepG2 = test: Cytotoxicity against human HepG2 cells after 48 hrs by MTT assay; format: functional, cell-based; settings: HepG2, 48 h
# Staphylococcus aureus [2] = test: Antimicrobial activity against Staphylococcus aureus ATCC 6538; format: functional
# K562 [3] = test: Cytotoxicity against human K562 cells after 48 hrs by MTT assay; format: functional, cell-based; settings: K562, 48 h
# K562 [4] = test: Induction of apoptosis in human K562 cells assessed as viable cells at 1 ug/ml after 5 hrs using annexin-V-FITC and propidium iodide staining by flow cytometry (reference value: 99.86%); format: functional; settings: K562, 5 h, read-out: Activity
# K562 [5] = test: Induction of apoptosis in human K562 cells assessed as down regulation of c-Myc at 2 ug/ml after 3 hrs by Western blot analysis; format: functional, cell-based
# K562 [6] = test: Induction of apoptosis in human K562 cells assessed as cell survival at 0.75 ug/ml after 5 hrs using annexin-V-FITC and propidium iodide staining by flow cytometry (reference value: 97.96%); format: functional; settings: K562, 5 h, read-out: Activity
# K562 [7] = test: Induction of apoptosis in human K562 cells assessed as viable cells at 0.75 ug/ml after 5 hrs using annexin-V-FITC and propidium iodide staining by flow cytometry (reference value: 99.86%); format: functional; settings: K562, 5 h, read-out: Activity
# K562 [8] = test: Induction of apoptosis in human K562 cells assessed as cell survival at 1 ug/ml after 1 hr using annexin-V-FITC and propidium iodide staining by flow cytometry (reference value: 97.89%); format: functional; settings: K562, 1 h, read-out: Activity
# K562 [9] = test: Induction of apoptosis in human K562 cells assessed as viable cells after 3 hrs using annexin-V-FITC and propidium iodide staining by flow cytometry (reference value: 93.69%); format: functional, cell-based
# K562 [10] = test: Induction of apoptosis in human K562 cells assessed as cell survival at 2 ug/ml after 5 hrs using annexin-V-FITC and propidium iodide staining by flow cytometry (reference value: 97.96%); format: functional; settings: K562, 5 h, read-out: Activity
# K562 [11] = test: Induction of apoptosis in human K562 cells assessed as viable cells at 2 ug/ml after 5 hrs using annexin-V-FITC and propidium iodide staining by flow cytometry (reference value: 99.86%); format: functional; settings: K562, 5 h, read-out: Activity
# K562 [12] = test: Induction of apoptosis in human K562 cells assessed as cell survival at 0.5 ug/ml after 5 hrs using annexin-V-FITC and propidium iodide staining by flow cytometry (reference value: 97.96%); format: functional; settings: K562, 5 h, read-out: Activity
# K562 [13] = test: Induction of apoptosis in human K562 cells assessed as viable cells at 2 ug/ml after 3 hrs using annexin-V-FITC and propidium iodide staining by flow cytometry (reference value: 93.69%); format: functional; settings: K562, 3 h, read-out: Activity
# K562 [14] = test: Induction of apoptosis in human K562 cells assessed as viable cells at 2 ug/ml using annexin-V-FITC and propidium iodide staining by flow cytometry (reference value: 93.69%); format: functional, cell-based; settings: TDE = time-dependent effect
# K562 [15] = test: Induction of apoptosis in human K562 cells assessed as cell survival at 0.25 ug/ml after 5 hrs using annexin-V-FITC and propidium iodide staining by flow cytometry (reference value: 97.96%); format: functional; settings: K562, 5 h, read-out: Activity
# K562 [16] = test: Induction of apoptosis in human K562 cells assessed as cell survival at 1 ug/ml after 2 hrs using annexin-V-FITC and propidium iodide staining by flow cytometry (reference value: 97.89%); format: functional; settings: K562, 2 h, read-out: Activity
# K562 [17] = test: Induction of apoptosis in human K562 cells assessed as viable cells at 0.5 ug/ml after 5 hrs using annexin-V-FITC and propidium iodide staining by flow cytometry (reference value: 99.86%); format: functional; settings: K562, 5 h, read-out: Activity
# K562 [18] = test: Induction of apoptosis in human K562 cells assessed as cell survival at 1 ug/ml after 6 hrs using annexin-V-FITC and propidium iodide staining by flow cytometry (reference value: 97.89%); format: functional; settings: K562, 6 h, read-out: Activity
# K562 [19] = test: Induction of apoptosis in human K562 cells assessed as cell survival at 1 ug/ml after 4 hrs using annexin-V-FITC and propidium iodide staining by flow cytometry (reference value: 97.89%); format: functional; settings: K562, 4 h, read-out: Activity
# K562 [20] = test: Induction of apoptosis in human K562 cells assessed as cell survival at 4 ug/ml after 5 hrs using annexin-V-FITC and propidium iodide staining by flow cytometry (reference value: 97.96%); format: functional; settings: K562, 5 h, read-out: Activity
# K562 [21] = test: Induction of apoptosis in human K562 cells assessed as effect on Bcl-XL expression at 2 ug/ml after 4 hrs by Western blot analysis; format: functional, cell-based
# K562 [22] = test: Induction of apoptosis in human K562 cells assessed as cell survival at 1 ug/ml after 5 hrs using annexin-V-FITC and propidium iodide staining by flow cytometry (reference value: 97.96%); format: functional; settings: K562, 5 h, read-out: Activity
# K562 [23] = test: Induction of apoptosis in human K562 cells assessed as […] of Bcl-2 at 2 ug/ml after 4 hrs by Western blot analysis; format: functional, cell-based
# K562 [24] = test: Induction of apoptosis in human K562 cells assessed as viable cells at 4 ug/ml after 5 hrs using annexin-V-FITC and propidium iodide staining by flow cytometry (reference value: 99.86%); format: functional; settings: K562, 5 h, read-out: Activity
# K562 [25] = test: Induction of apoptosis in human K562 cells assessed as cell survival at 1 ug/ml after 8 hrs using annexin-V-FITC and propidium iodide staining by flow cytometry (reference value: 97.89%); format: functional; settings: K562, 8 h, read-out: Activity
smiles,measurement,setting,value
CN[C@H](CC(C)C)C(=O)N[C@H]1C(=O)N[C@@H](CC(N)=O)C(=O)N[C@H]2C(=O)N[C@H]3C(=O)N[C@H](C(=O)N[C@H](C(=O)O)c4cc(O)cc(O)c4-c4cc3ccc4O)[C@H](O)c3ccc(c(Cl)c3)Oc3cc2cc(c3O[C@@H]2O[C@H](CO)[C@@H](O)[C@H](O)[C@H]2O[C@H]2C[C@](C)(N)[C@H](O)[C@H](C)O2)Oc2ccc(cc2Cl)[C@H]1O [VANCOMYCIN],MIC,Bacillus subtilis,0.5 µg/mL
CC(=O)N1CCN(c2ccc(OCC3COC(Cn4ccnc4)(c4ccc(Cl)cc4Cl)O3)cc2)CC1 (configuration not stated) [KETOCONAZOLE],MIC,Candida albicans,0.02 µg/mL
CC(C)=C[C@H]1C[C@H](C)[C@]2(CC[C@]3(C)C[C@@H]4C(C)=CC(=O)[C@@H]4/C(C=O)=C\C[C@H]32)O1,MIC,Pseudomonas aeruginosa,> 100 µg/mL
same,MIC,Staphylococcus aureus [1],> 100 µg/mL
same,IC50,HepG2,55.7 µM
same,MIC,Staphylococcus aureus [2],> 100 µg/mL
same,MIC,Bacillus subtilis,> 100 µg/mL
same,IC50,K562 [3],39.5 µM
same,MIC,Candida albicans,> 100 µg/mL
CC(C)=C[C@H]1C[C@H](C)[C@]2(CC[C@]3(C)C[C@@H]4C(C)=CC(=O)[C@]4(O)/C(C=O)=C\C[C@H]32)O1,viability at 1 µg/mL,K562 [4],49.6%
same,Activity,K562 [5],Active
same,viability at 0.75 µg/mL,K562 [6],61.5%
same,viability at 0.75 µg/mL,K562 [7],62.8%
same,viability at 1 µg/mL,K562 [8],91.3%
same,Activity,K562 [9],Dose-dependent effect
same,viability at 2 µg/mL,K562 [10],26.9%
same,viability at 2 µg/mL,K562 [11],25.9%
same,MIC,Pseudomonas aeruginosa,> 100 µg/mL
same,viability at 0.5 µg/mL,K562 [12],88.3%
same,viability at 2 µg/mL,K562 [13],32.6%
same,Activity,K562 [14],tde
same,MIC,Staphylococcus aureus [1],12.5 µg/mL
same,IC50,HepG2,6.49 µM
same,viability at 0.25 µg/mL,K562 [15],96.6%
same,viability at 1 µg/mL,K562 [16],69.7%
same,MIC,Staphylococcus aureus [2],12.5 µg/mL
same,viability at 0.5 µg/mL,K562 [17],87.5%
same,viability at 1 µg/mL,K562 [18],27.5%
same,viability at 1 µg/mL,K562 [19],56%
same,viability at 4 µg/mL,K562 [20],2.45%
same,MIC,Bacillus subtilis,12.5 µg/mL
same,Activity,K562 [21],inactive
same,viability at 1 µg/mL,K562 [22],50.2%
same,IC50,K562 [3],4.06 µM
same,Activity,K562 [23],Active
same,viability at 4 µg/mL,K562 [24],1.78%
same,viability at 1 µg/mL,K562 [25],5.86%
same,MIC,Candida albicans,50 µg/mL
CC(C)=C[C@H]1C[C@H](C)[C@]2(CC[C@]3(C)C[C@@H]4C(C)=CC(=O)[C@H]4/C(C=O)=C\C[C@H]32)O1 [3-ANHYDRO-6-EPI-OPHIOBOLIN A],MIC,Pseudomonas aeruginosa,> 100 µg/mL
same,MIC,Staphylococcus aureus [1],> 100 µg/mL
same,IC50,HepG2,47.1 µM
same,MIC,Staphylococcus aureus [2],> 100 µg/mL
same,MIC,Bacillus subtilis,> 100 µg/mL
same,IC50,K562 [3],35.6 µM
same,MIC,Candida albicans,> 100 µg/mL
COc1cc([C@@H]2c3cc4c(cc3[C@@H](O[C@@H]3O[C@@H]5CO[C@@H](C)O[C@H]5[C@H](O)[C@H]3O)[C@H]3COC(=O)[C@H]23)OCO4)cc(OC)c1O [ETOPOSIDE],IC50,HepG2,6.41 µM
O=C(O)c1cn(C2CC2)c2cc(N3CCNCC3)c(F)cc2c1=O [CIPROFLOXACIN],MIC,Pseudomonas aeruginosa,1 µg/mL
